Experimental data taken from patent US11771645B2, “Transdermally absorbable base material containing lipid peptide compound” (KYUSHU UNIVERSITY, priority 2015, dated 2023).

Tested on: Yucatan Micro Pig (YMP) skin
Assay: Skin permeability test, fluorescently-labeled insulin in skin extract and receiver solution, vertical Franz type diffusion cell (Examples 8, 12, 14, 18)
Format: in vitro ADME
Method: Yucatan Micro Pig (YMP) skin (by Charles River Laboratories Japan, Inc.) stored at −80° C. was thawed at room temperature (roughly 25° C.), and was then subjected to the fat removal (to have a skin thickness of roughly 2 mm). Thus, the YMP skin of roughly 2 cm square was prepared.
To a receiver phase of the vertical Franz type diffusion cell (effective area: 0.785 cm^2), 5.0 mL of phosphate buffered saline (PBS of pH 7.4, stirred at 500 rpm) was added, and the above-described YMP skin (temperature of PBS on skin surface: 32.5° C.) was set. […]
The skin was taken out after 24 hours, and washed with the extractant [solution of PBS, acetonitrile, and methanol mixed at 2:1:1 (v/v/v)]. […] The extracted solution thus obtained was filtered using a PTFE filter (0.20 μm), and then, the quantity of the fluorescently-labeled insulin in the solution was determined using the fluorescence spectrometer LS-55 (manufactured by PerkinElmer, Inc.) (each calculated as the average value of three tests). The fluorescence spectrometer measurement was made at an excitation wavelength of 495 nm and a measurement wavelength of 521 nm. […]
The skin was taken out after 24 hours, and washed with the extractant [solution of PBS, acetonitrile, and methanol mixed at 2:1:1 (v/v/v)]. […] The fluorescence spectrometer measurement was made at an excitation wavelength of 495 nm and a measurement wavelength of 521 nm. […]

Substance: polyoxyethylene lauryl ether
- transdermal absorption enhancing effect of insulin: no transdermal absorption enhancing effect
